From ChEMBL document CHEMBL6120978, “Anticancer activity of salinomycin quaternary phosphonium salts” (Eur J Med Chem, 2025)

Tests used:
[1] = test system: SW480; assay: Cytotoxicity against human SW480 cells incubated for 72 hrs by MTT assay; type: functional, cell-based; details: SW480, 72 h
[2] = test system: SW-620; assay: Cytotoxicity against human SW620 cells incubated for 72 hrs by MTT assay; type: functional, cell-based; details: SW-620, 72 h
[3] = test system: PC-3; assay: Cytotoxicity against human PC-3 cells incubated for 72 hrs by MTT assay; type: functional, cell-based; details: PC-3, 72 h
[4] = test system: MDA-MB-231; assay: Cytotoxicity against human MDA-MB-231 cells incubated for 72 hrs by MTT assay; type: functional, cell-based; details: MDA-MB-231, 72 h
[5] = test system: A549; assay: Cytotoxicity against human A549 cells incubated for 72 hrs by MTT assay; type: functional, cell-based; details: A549, 72 h
[6] = Cytotoxicity against human HaCaT cells incubated for 72 hrs by MTT assay; type: toxicity, cell-based
[7] = Cytotoxicity against chinese hamster V79 cells incubated for 72 hrs by MTT assay; type: toxicity, cell-based, Cricetulus griseus
[8] = Selectivity index, ratio of IC50 for cytotoxicity against human HaCaT cells to IC50 for cytotoxicity against human SW480 cells; type: toxicity, cell-based; details: HaCaT cells versus SW480 cells, read-out: Ratio IC50
[9] = Selectivity index, ratio of IC50 for cytotoxicity against human HaCaT cells to IC50 for cytotoxicity against human SW620 cells; type: toxicity, cell-based; details: HaCaT cells versus SW620 cells, read-out: Ratio IC50
[10] = Selectivity index, ratio of IC50 for cytotoxicity against human HaCaT cells to IC50 for cytotoxicity against human PC-3 cells; type: toxicity, cell-based; details: HaCaT cells versus PC-3 cells, read-out: Ratio IC50
[11] = Selectivity index, ratio of IC50 for cytotoxicity against human HaCaT cells to IC50 for cytotoxicity against human MDA-MB-231 cells; type: toxicity, cell-based; details: HaCaT cells versus MDA-MB-231 cells, read-out: Ratio IC50
[12] = Selectivity index, ratio of IC50 for cytotoxicity against human HaCaT cells to IC50 for cytotoxicity against human A549 cells; type: toxicity, cell-based; details: HaCaT cells versus A549 cells, read-out: Ratio IC50
[13] = Selectivity index, ratio of IC50 for cytotoxicity against chinese hamster V79 cells to IC50 for cytotoxicity against human SW480 cells; type: toxicity, cell-based; details: V79 cells versus SW480 cells, read-out: Ratio IC50
[14] = Selectivity index, ratio of IC50 for cytotoxicity against chinese hamster V79 cells to IC50 for cytotoxicity against human SW620 cells; type: toxicity, cell-based; details: V79 cells versus SW620 cells, read-out: Ratio IC50
[15] = Selectivity index, ratio of IC50 for cytotoxicity against chinese hamster V79 cells to IC50 for cytotoxicity against human PC-3 cells; type: toxicity, cell-based; details: V79 cells versus PC-3 cells, read-out: Ratio IC50
[16] = Selectivity index, ratio of IC50 for cytotoxicity against chinese hamster V79 cells to IC50 for cytotoxicity against human MDA-MB-231 cells; type: toxicity, cell-based; details: V79 cells versus MDA-MB-231 cells, read-out: Ratio IC50
[17] = Selectivity index, ratio of IC50 for cytotoxicity against chinese hamster V79 cells to IC50 for cytotoxicity against human A549 cells; type: toxicity, cell-based; details: V79 cells versus A549 cells, read-out: Ratio IC50
[18] = test system: Staphylococcus aureus; assay: Antimicrobial activity against Staphylococcus aureus NCTC 4163 incubated for 18 hrs by twofold microdilution method; type: functional
[19] = test system: Staphylococcus aureus; assay: Antimicrobial activity against Staphylococcus aureus ATCC 25923 incubated for 18 hrs by twofold microdilution method; type: functional
[20] = test system: Staphylococcus aureus; assay: Antimicrobial activity against Staphylococcus aureus ATCC 6538 incubated for 18 hrs by twofold microdilution method; type: functional
[21] = test system: Staphylococcus aureus; assay: Antimicrobial activity against Staphylococcus aureus ATCC 29213 incubated for 18 hrs by twofold microdilution method; type: functional
[22] = test system: Staphylococcus epidermidis; assay: Antimicrobial activity against Staphylococcus epidermidis ATCC 12228 incubated for 18 hrs by twofold microdilution method; type: functional
[23] = test system: Staphylococcus epidermidis; assay: Antimicrobial activity against Staphylococcus epidermidis ATCC 35984 incubated for 18 hrs by twofold microdilution method; type: functional
[24] = test system: Escherichia coli; assay: Antimicrobial activity against Escherichia coli ATCC 25922 incubated for 18 hrs by twofold microdilution method; type: functional
[25] = test system: Pseudomonas aeruginosa; assay: Antimicrobial activity against Pseudomonas aeruginosa ATCC 15442 incubated for 18 hrs by twofold microdilution method; type: functional

Row | SMILES | IC50 [1] [nM] | IC50 [2] [nM] | IC50 [3] [nM] | IC50 [4] [nM] | IC50 [5] [nM] | IC50 at 72 h [6] [nM] | IC50 at 72 h [7] [nM] | selectivity ratio [8] | selectivity ratio [9] | selectivity ratio [10] | selectivity ratio [11] | selectivity ratio [12] | selectivity ratio [13] | selectivity ratio [14] | selectivity ratio [15] | selectivity ratio [16] | selectivity ratio [17] | MIC [18] [µg/mL] | MIC [19] [µg/mL] | MIC [20] [µg/mL] | other results
1 | CC[C@@H](C(=O)[C@@H](C)[C@@H](O)[C@H](C)[C@@H]1O[C@@H]([C@@H](CC)C(=O)OCCCCCC[P+](c2ccccc2)(c2ccccc2)c2ccccc2)CC[C@@H]1C)[C@H]1O[C@]2(C=C[C@@H](O)[C@]3(CC[C@@](C)([C@H]4CC[C@](O)(CC)[C@H](C)O4)O3)O2)[C@H](C)C[C@@H]1C.[Br-] | 710 | 2570 | 1850 | 2650 | 720 | 780 | 630 | 1.1 | 0.3 | 0.4 | 0.3 | 1.1 | 0.9 | 0.2 | 0.3 | 0.2 | 0.9 | 2 | 2 | 2 | MIC [21]: 2 µg/mL; MIC [22]: 2 µg/mL; MIC [23]: 2 µg/mL; MIC [24]: 256 µg/mL; MIC [25]: 256 µg/mL
2 | CC[C@@H](C(=O)[C@@H](C)[C@@H](O)[C@H](C)[C@@H]1O[C@@H]([C@@H](CC)C(=O)OCCCCCC[P+](c2ccccc2)(c2ccccc2)c2ccc(N(C)C)cc2)CC[C@@H]1C)[C@H]1O[C@]2(C=C[C@@H](O)[C@]3(CC[C@@](C)([C@H]4CC[C@](O)(CC)[C@H](C)O4)O3)O2)[C@H](C)C[C@@H]1C.[Br-] | 580 | 710 | 1470 | 880 | 850 | 710 | 600 | 1.2 | 1 | 0.5 | 0.8 | 0.8 | 1 | 0.8 | 0.4 | 0.7 | 0.7 | 8 | 8 | 8 | MIC [21]: 8 µg/mL; MIC [22]: 8 µg/mL; MIC [23]: 8 µg/mL; MIC [24]: > 256 µg/mL; MIC [25]: > 256 µg/mL
3 | CC[C@@H](C(=O)[C@@H](C)[C@@H](O)[C@H](C)[C@@H]1O[C@@H]([C@@H](CC)C(=O)OCCCCCC[P+](c2ccc(OC)cc2)(c2ccc(OC)cc2)c2ccc(OC)cc2)CC[C@@H]1C)[C@H]1O[C@]2(C=C[C@@H](O)[C@]3(CC[C@@](C)([C@H]4CC[C@](O)(CC)[C@H](C)O4)O3)O2)[C@H](C)C[C@@H]1C.[Br-] | 530 | 810 | 1400 | 600 | 920 | 630 | 600 | 1.2 | 0.8 | 0.5 | 1.1 | 0.7 | 1.1 | 0.7 | 0.4 | 1 | 0.7 | 4 | 8 | 4 | MIC [21]: 8 µg/mL; MIC [22]: 8 µg/mL; MIC [23]: 8 µg/mL; MIC [24]: > 256 µg/mL; MIC [25]: > 256 µg/mL
4 | CC[C@@H](C(=O)[C@@H](C)[C@@H](O)[C@H](C)[C@@H]1O[C@@H]([C@@H](CC)C(=O)OCCCC[P+](c2ccccc2OC)(c2ccccc2OC)c2ccccc2OC)CC[C@@H]1C)[C@H]1O[C@]2(C=C[C@@H](O)[C@]3(CC[C@@](C)([C@H]4CC[C@](O)(CC)[C@H](C)O4)O3)O2)[C@H](C)C[C@@H]1C.[Br-] | 560 | 1250 | 880 | 740 | 700 | 940 | 640 | 1.7 | 0.8 | 1.1 | 1.3 | 1.3 | 1.1 | 0.5 | 0.7 | 0.9 | 0.9 | 2 | 2 | 2 | MIC [21]: 2 µg/mL; MIC [22]: 2 µg/mL; MIC [23]: 2 µg/mL; MIC [24]: 256 µg/mL; MIC [25]: 256 µg/mL
